Experimental data taken from paper PMC9465256, “Discovering monoacylglycerol lipase inhibitors by a combination of fluorogenic substrate assay and activity-based protein profiling” (Frontiers in Pharmacology, 2022).
Entries after “also recorded” stand apart in the source; their conditions may differ. Each block holds one compound with its values, some of them ahead of it.

What was measured:
human ABHD6 = target: T1, human ABHD6 (Homo sapiens, UniProt Q9BV23); test: ABHD6 activity assay (AA-HNA fluorogenic substrate); format: biochemical
T1 construct: expressed in transfected cells; host or cells: HEK293T (transient transfection; membrane fraction)
T1 sequence (Q9BV23 1-337): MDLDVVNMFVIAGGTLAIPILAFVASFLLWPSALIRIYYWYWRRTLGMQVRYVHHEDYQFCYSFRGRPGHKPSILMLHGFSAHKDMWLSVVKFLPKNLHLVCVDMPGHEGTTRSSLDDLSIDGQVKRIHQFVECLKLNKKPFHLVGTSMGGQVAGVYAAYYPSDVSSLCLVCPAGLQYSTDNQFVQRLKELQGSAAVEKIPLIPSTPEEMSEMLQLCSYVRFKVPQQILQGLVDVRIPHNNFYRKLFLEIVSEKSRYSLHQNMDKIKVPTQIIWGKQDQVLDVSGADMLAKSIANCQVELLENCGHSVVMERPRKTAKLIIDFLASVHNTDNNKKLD
Outline: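 Membranes from HEK293T cells transiently overexpressing human ABHD6 (50 μg/ml final) were preincubated 30 min with inhibitor in 40 mM HEPES pH 7.5, 0.1 mg/ml BSA, 5% DMSO. Hydrolysis of 200 µM AA-HNA was followed by fluorescence for 30 min, activity taken as the 5–15 min slope.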

ABHD6 in cancer cells = test: Competitive ABPP in cancer cell lysates: ABHD6 band; format: biochemical; settings: 10 μM preincubation, A431 and B16-F10 cells
Method: (§1) To identify the potential off-targets of the compounds with anti-cancer activities, ABPP was applied. Cancer cells were seeded in the dishes and were washed with PBS, scraped, centrifugated (3,000 × g, 3 min) and pellets snap frozen in liquid in nitrogen. For ABPP experiments, the cell pellets were lysed by probe sonication (3 × 10 bursts) in PBS, followed by the determination of protein concentration of the intact cell lysate by Qubit assay. […] The reactions were then quenched by 10 µl sample buffer (×4). The obtained samples were directly loaded and resolved on SDS-PAGE gel (10% acrylamide). The gel-based ABPP results were then scanned and analyzed using a ChemiDoc MP system (Cy3 settings, BioRad).

[1] = test system: serine hydrolases labeled by FP-TAMRA in mouse brain membrane proteome; test: Competitive ABPP selectivity assay, mouse brain membrane proteome; format: biochemical; settings: 100 µM, FP-TAMRA 250 nM
Method: Mouse brains were dounce homogenized lysis buffer (20 mM HEPES, 2 mM DTT, 1 mM MgCl2, 25 U/mL benzonase) and incubated on ice for 15 min, followed by low-speed spin (2,500 g, 3 min, 4 C) to remove debris. The supernatant was subjected to ultracentrifugation (100,000 g, 45 min, 4°C) to generate the cytosolic fraction in the supernatant, as well as the membrane fraction as a pellet. After removal of the soluble supernatant, the pellet was resuspended in storage buffer (20 mM HEPES, 2 mM DTT) by pipetting. Total protein concentrations in membrane and soluble fractions were determined using a Qubit protein assay (Invitrogen). The obtained samples were stored at −80°C until further use.
The competitive ABPP selectivity assay was performed according to the previously reported protocol. Briefly, mouse brain membrane proteome (2 mg/ml, 20 µl) was preincubated for 30 min with 0.5 µl of DMSO (vehicle) or inhibitor (100 μM, finial concentration). […] The reactions were then quenched by 10 µl sample buffer (×4). The obtained samples were directly loaded and resolved on SDS-PAGE gel (10% acrylamide). The gels were then scanned and analyzed using a ChemiDoc MP system (Cy3 settings, BioRad). All the samples were measured and duplicated.

human ABHD12 = target: T2, human ABHD12 (Homo sapiens, UniProt Q8N2K0); test: ABHD12 activity by competitive ABPP with FP-TAMRA; format: biochemical; settings: 100 µM compound; competitive ABPP with probe FP-TAMRA (250 nM); read-out: ABHD12 Inhibition (%)
T2 construct: expressed in transfected cells; host or cells: HEK293T (transient transfection; membrane fraction)
T2 sequence (Q8N2K0 1-398): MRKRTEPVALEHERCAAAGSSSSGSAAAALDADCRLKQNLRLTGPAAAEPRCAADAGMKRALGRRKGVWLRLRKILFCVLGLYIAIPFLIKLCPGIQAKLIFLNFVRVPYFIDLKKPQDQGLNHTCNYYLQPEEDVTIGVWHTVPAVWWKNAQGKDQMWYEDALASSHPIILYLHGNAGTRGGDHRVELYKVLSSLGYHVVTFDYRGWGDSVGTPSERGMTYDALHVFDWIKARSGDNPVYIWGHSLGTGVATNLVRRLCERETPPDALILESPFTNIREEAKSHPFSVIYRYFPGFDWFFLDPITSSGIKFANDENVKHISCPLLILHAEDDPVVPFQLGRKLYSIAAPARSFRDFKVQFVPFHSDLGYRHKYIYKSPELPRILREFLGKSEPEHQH
Outline: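 Membrane fractions of HEK293T cells transiently overexpressing human ABHD12 (1 mg/ml) preincubated with inhibitor or DMSO for 30 min at room temperature, then labelled with FP-TAMRA (250 nM final) for 20 min. Quenched samples resolved by SDS-PAGE and read by in-gel fluorescence scanning (Cy3 settings).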

human MAGL = target: T3, human MAGL (Homo sapiens, UniProt Q99685); test: MAGL activity assay (AA-HNA fluorogenic substrate); format: biochemical
T3 construct: expressed in transfected cells; host or cells: HEK293T (transient transfection; membrane fraction)
T3 sequence (Q99685 1-303): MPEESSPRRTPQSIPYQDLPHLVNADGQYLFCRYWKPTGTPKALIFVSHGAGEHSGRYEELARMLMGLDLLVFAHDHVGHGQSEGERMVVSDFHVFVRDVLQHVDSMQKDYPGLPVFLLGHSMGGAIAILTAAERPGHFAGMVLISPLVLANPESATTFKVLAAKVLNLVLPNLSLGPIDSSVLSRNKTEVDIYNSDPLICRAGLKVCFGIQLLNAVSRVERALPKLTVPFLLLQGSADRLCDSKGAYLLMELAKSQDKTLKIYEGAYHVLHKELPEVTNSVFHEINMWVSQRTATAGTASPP
Outline: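 Membranes from transiently transfected HEK293T cells overexpressing MAGL were preincubated with inhibitor for 30 min in 40 mM HEPES pH 7.5 with 0.1 mg/ml BSA. AA-HNA substrate was then added (10 µl of 200 µM stock), and fluorescence was read every minute for 30 min. Activity was taken from the slope between 5 and 15 min.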

B16-F10 cells = test: Cell viability assay (CCK-8), B16-F10; format: cell-based; settings: B16-F10, 48 h, CCK-8
Method: (§2) Various cancer cell lines, including human colon cancer cell line HT-29, ovarian cell line OVCAR-3, melanoma cell line B16-F10, skin squamous cancer cells A431, cervical cancer cells Hela, lung cancer cell lines A549, H1975, and HCC827, were purchased from American type culture collection (ATCC). A431, H1975, B16-F10, OVCAR-3, HT-29, HCC827, Hela, and A549 cells were cultured in Dulbecco’s modified Eagle medium (DMEM, Gibco) containing 10% fetal bovine serum (FBS, Gibco), penicillin (100 U/ml) and streptomycin (100 μg/ml). All cell lines were maintained in a humidified 37°C incubator with 5% CO2. The medium was refreshed every 2–3 days and the cells were passaged at ∼90% confluence by adding the fresh medium, followed by vigorously pipetting the resuspend cells. Of note, the cells were only washed with PBS when a significant number of dead cells were observed.
(§3) The antiproliferation activity of the compounds against the cancer cell lines was evaluated using Cell Counting Kit-8. Briefly, cells (∼1,000 per well) in 100 µl of culture medium were plated in a 96-well plate for 24 h and 100 µl of medium with different concentrations of the tested compounds was added to each well for 48 h. Then 10 μl of CCK8 solution (#CK04, Dojindo) was added and incubated at 37°C for 2 h. The absorbance of each well was measured with a plate reader (BioTeck) at 450 nm. Cell viability was calculated as follows: cell viability (%) = [(As-Ab)/(Ac-Ab)] × 100. Among them, As represents the absorbance of experimental wells, Ab represents the absorbance of blank wells and Ac represents the absorbance of control wells. The experiments were repeated at least three times and IC50 values were determined by plotting a log(inhibitor) v. s normalized response (Variable slope) dose–response curve generated using GraphPad Prism software.

[2] = test system: endogenous MAGL in cancer cells; test: Competitive ABPP in cancer cell lysates: MAGL band; format: biochemical; settings: 10 μM preincubation, cancer cell lysates
Method: as §1

HT-29 cells = test: Cell viability assay (CCK-8), HT-29; format: cell-based, human; settings: HT-29, 48 h
Method: as §2, §3

OVCAR-3 cells = test: Cell viability assay (CCK-8), OVCAR-3; format: cell-based; settings: OVCAR-3, 48 h
Method: as §2, §3

H1975 cells = test: Cell viability assay (CCK-8), H1975; format: cell-based; settings: H1975, 48 h
Method: as §2, §3

HCC827 cells = test: Cell viability assay (CCK-8), HCC827; format: cell-based; settings: HCC827, 48 h
Method: as §2, §3

Hela cells = test: Cell viability assay (CCK-8), Hela; format: cell-based; settings: 48 h
Method: as §2, §3

A431 cells = test: Cell viability assay (CCK-8), A431; format: cell-based; settings: A431, 48 h, CCK-8
Method: as §2, §3

A549 cells = test: Cell viability assay (CCK-8), A549; format: cell-based; settings: A549, 48 h
Method: as §2, §3

[3] = 100 µM, AA-HNA substrate assay, Supplementary Table 2, read-out: ABHD6 Inhibition (%)
[4] = 100 µM, AA-HNA substrate assay, Supplementary Table 1, read-out: MAGL Inhibition (%)

effect on fluorescent signal of AA-HNA hydrolysis by ABHD6 (human ABHD6; 10 µM): reduction of the fluorescent signal
SMILES: O=C(N1CCCCC1c1ccccc1)n1cc(-c2ccc(-c3cccc(CO)c3)cc2)nn1 (stereo not shown) [KT182, reference compound]
labeling of ABHD6 (∼32 kDa) (ABHD6 in cancer cells): disappeared

SMILES: O=c1c(O)c(-c2ccc(O)c(O)c2)oc2cc(O)cc(O)c12 [compound 70, Quercetin]
activity at 100 µM (human ABHD6; [3]): 48.6% | selectivity profile over serine hydrolases [1]: broad-spectrum inhibitors that cross-reacted with multiple serine hydrolases | activity at 100 µM (human ABHD12): 75.1% | activity at 100 µM (human MAGL; [4]): 42%

activity (human ABHD6; [3]): 115% | activity (human ABHD12): 119% | activity (human MAGL; [4]): 41.3%
SMILES: O=C(CCc1ccc(O)cc1)c1c(O)cc(O)cc1O [compound 66, Dihydronaringenin]
selectivity profile over serine hydrolases [1]: broad-spectrum inhibitors that cross-reacted with multiple serine hydrolases

SMILES: O=C(OC(C(F)(F)F)C(F)(F)F)N1CCC(C(O)(c2ccc3c(c2)OCO3)c2ccc3c(c2)OCO3)CC1 [KML29, reference compound]
Antiproliferation activity (pIC50 ± SEM) B16-F10 (B16-F10 cells): 5.0 ± 0.2 | fluorescent band of MAGL (∼33 kDa) in ABPP gels [2]: competed away | Antiproliferation activity (pIC50 ± SEM) HT-29 (HT-29 cells): 5.0 ± 0.3 | IC50 (human MAGL; 30 min preincubation, dose-response curve, read-out: IC50 (MAGL, AA-HNA assay)): 87 nM | effect on fluorescent signal of AA-HNA hydrolysis by MAGL (human MAGL; preincubation with 1 µM): significantly reduced the fluorescent signal to the background level; also recorded: reduction of the fluorescent signal | Antiproliferation activity (pIC50 ± SEM) OVCAR-3 (OVCAR-3 cells): <5 | Antiproliferation activity (pIC50 ± SEM) H1975 (H1975 cells): <5 | Antiproliferation activity (pIC50 ± SEM) HCC827 (HCC827 cells): <5 | Antiproliferation activity (pIC50 ± SEM) Hela (Hela cells): <5 | Antiproliferation activity (pIC50 ± SEM) A431 (A431 cells): <5 | Antiproliferation activity (pIC50 ± SEM) A549 (A549 cells): <5

SMILES: Cc1cc2c(C(C)C)c(O)c(O)c(C=O)c2c(O)c1-c1c(C)cc2c(C(C)C)c(O)c(O)c(C=O)c2c1O [compound 34, Gossypol Acetate]
activity at 100 µM (human ABHD6; [3]): 26.3% | selectivity profile over serine hydrolases [1]: broad-spectrum inhibitors that cross-reacted with multiple serine hydrolases | activity at 100 µM (human ABHD12): 43.7% | activity at 100 µM (human MAGL; [4]): 35.2%
